Test results from patent US6770738B1, “Higher order structure and binding of peptide nucleic acids” (ISIS Pharmaceuticals, Inc., priority 1992, dated 2004).

How the values were obtained:
[1] = system: complementary DNA; experiment: Thermodynamics of duplex formation with DNA; assay type: binding
Description: (§1) Thermodynamics parameters for hybridization can be extracted from thermal stability measurements when these are performed at varying concentrations of the complexes, or from the shape of the thermal denaturation curves. Both methods were used to determine ΔH°, ΔS° and ΔG° for formation of the PNA/RNA, DNA/RNA, PNA/DNA and DNA/DNA duplexes (Table III). It is remarkable that the decrease in entropy is almost identical for the formation of DNA/DNA and PNA/DNA duplexes and that both reactions are strongly enthalpy driven.

[2] = system: complementary RNA; experiment: Thermodynamics of duplex formation with RNA; assay type: binding
Description: as §1

[3] = system: RNA target 5′-TAGTTGTGACGTACA-3; experiment: Equilibrium and rate constants for duplexes with RNA (gel-shift); assay type: binding; conditions: [Na+] 0.1 M, 37 ° C.; 100 mM NaCl, 10 mM phosphate, 1 mM EDTA, pH 7.0; gel-shift with 32P-labeled RNA
[4] = system: complementary deoxyoligonucleotide; experiment: Melting temperature of complexes with complementary DNA; assay type: binding; conditions: 100 mM NaCl, 10 mM Na-phosphate, 0.1 mM EDTA, pH 7; 4 μM of each strand
Description: (§2) The thermal stability measured as the melting temperature, Tm, of complexes between the pentadecamer, H-TGTACGTCACAACTA-NH2 (SEQ ID NO:10) and the complementary deoxyoligonucleotide 3′-ACATGCAGTGTTGAT (SEQ ID NO:47) (termed anti-parallel orientation: amino terminal of the PNA complementary to the 3′-end of the oligonucleotide) was 69.5° C. (see Table II), whereas the Tm of the corresponding PNA-DNA complex in parallel orientation was 56.1° C. The Tm for the PNA-RNA complexes was 72.3 and 51.2° C., respectively (see Table II). The orientation preference was further settled by using two decamer PNAs, and hybridizing these to complementary oligonucleotides in both orientations. The anti-parallel orientation was preferred in all cases (see Table II). Furthermore, it is noteworthy that virtually identical Tms were obtained regardless of which strand is the PNA and which is the DNA (see Table II, 2nd & 3rd row).

[5] = system: complementary RNA; experiment: Melting temperature of complexes with complementary RNA; assay type: binding; conditions: 100 mM NaCl, 10 mM Na-phosphate, 0.1 mM EDTA, pH 7; 4 μM of each strand
Description: as §2

[6] = system: 264 bp EcorI/PvuII fragment of pT8C2A8G2; experiment: KMnO4 and DMS probing of PNA binding to double-stranded DNA; conditions: pH 7.5, 5 μM PNA, compared to pH 6.5 and 5.5
Description: Probing was effected in 100μ buffer (S1: 100 mM NaCl, 1 mM ZnSO4, 50 mM NaAc, pH 4.5; KMnO4/dimethyl sulphate (DMS): 10 mM Na-cacodylate, 1 mM EDTA, pH 7.0 or as other wise noted) containing about 200 cps ^32P-labeled DNA fragment, 0.5 μg calf thymus DNA and the desired amount of PNA. Following a preincubation for 60 min at 37° C., the probing reagent was added and the incubation was continued at room temperature. The reactions were terminated by the addition of a stop-buffer. The DNA was precipitated by addition of 200 μL. 2% KAc in 96% EtOH and was analyzed by electrophoresis in 10% polyacrylamide sequencing gels. Radioactive DNA bands were visualized by autoradiography using amplifying screens and Agfa curix RPA X-ray films exposed at −70° C.
Probing conditions were: S1: 0.5 U/μl, 5 min. stopped with 3 μl 1 M EDTA; KMnO4: 1 mM, 15 sec. stopped with 50 μl 1M […], 1.5 M NaAc, pH 7.0; DMS: 1% DMS, 15 sec., stopped as for KMnO4 probing. Samples probed with DMS or KMnO4 were treated with piperidine (0.5 M, 90° C., 20 min.) prior to gel analysis.
For this example the 264 bp EcorI/PvuII fragment of pT8C2A8G2 was used that was 3′-^32P-end-labeled at the EcorI sit. Probing was effected as per the protocols of Example 12. The results are shown in FIG. 12 where in lanes 1 & 9 are controls without PNA. Lanes 1-7 are KMnO4 probing while lanes 9-15 are DMS probing. […]

[7] = system: pT9CT9C plasmid linearized by CfrlOI; experiment: Site-specific S1 nuclease digestion of plasmid with two PNA sites complexed with PNA; assay type: biochemical; conditions: 30 units S1 nuclease; target sites are for T5CT4
Text: was cloned into the Sal1 site of the pUC19 plasmid. This plasmid, which contained two binding sites for PNA H-T5CT4-LysNH2 (SEQ ID NO:6) separated by six base pairs, was designated pT9CT9C. Strand displacement in the two T5CT4 sites led to opening of the entire region, including the sequence GTCGAC/GACGAC, providing a substrate for the S1 nuclease in both strands. As control, a pT9C-5 plasmid was used, which carried only one T5CT4 (SEQ ID NO:6) insert cloned into the SalI site of the pUC19 plasmid.
cloned in the Sal1 site of the pUC19 polylinker. The pT9C-5 plasmid carried the single insert A5GA4/CT5 (SEQ ID NO:4) cloned in the same site. The PNA-DNA complexes were prepared as described in Example 2 with the only difference being the duration of the incubation was 2 hours. Digestion by 30 units of the S1 nuclease was performed in the same buffer as described in Example 2 with two exceptions, lanes 2 and 4. In lane 2, 15 units of the enzyme were used, whereas in lane 4 200 mM NaCl and 1 mM of ZnSO4 were added to the buffer. Lane 1: the reference band obtained by digestion with the BamHI restriction enzyme of the pUC 19 plasmid linearized by the CfrlOI restriction enzyme. Lanes 2-4 site-specific digestion by the S1 nuclease of the linearized pT9C plasmid complexed with PNA H-T5CT4-LysNH2 (SEQ ID NO:6). Lanes 5-7: various controls. Lane 8: the same experiment as in lane 3, but using PNA T10 (SEQ ID NO:2) instead of T4CT5 (SEQ ID NO:8). Lane 9: the same experiment as in lane 3, but using PNA T2CT2CT4 (SEQ ID NO:1) instead of T4CT5 (SEQ ID NO:8). Lane 10: the same experiment as in lane 3, but using the pT9C-5 plasmid instead of the pT9C. In the header PNA T5CT4 (SEQ ID NO:6) is labelled as 1, T10 (SEQ ID NO:2) as 2 and T2CT2CT4 (SEQ ID NO:1) as 3.
The bands observed by gel electrophoresis have the same position and width as the band created by the BamHI restriction enzyme. […] Moreover, under the much milder S1 nuclease treatment necessary to generate the data for the pT9CT9C, the yield of double-stranded breaks in the pT9C-5 plasmid was extremely low (lane 10).

[8] = system: A4GA2GA2 target (pA8G2KS/T3, pT8C2KS/T7 RNA polymerase); experiment: Transcription elongation arrest using T3 or T7 RNA polymerase, mixed A/G PNA targets; assay type: biochemical; conditions: compared to Example 22
Description: The complex between the desired PNA and the desired DNA (100 ng) cleaved with the desired restriction enzyme was formed by incubation in 14 μL 10 mM Tris-HCl, 1 mM EDTA, (pH 7.4) buffer for 60 min at 37° C. Subsequently 4 μL 5× concentrated polymerase buffer (0.2 M Tris-HCl, pH 8.0, 125 mM NaCl, 40 mM MgCl2 10 mM spermidine) was added together with 15 U of RNA polymerase and ATP (10 μM), CTP (10 mM), UTP (1 mM) and ^32P-UTP (0.1 μCi). The incubation was continued for 10 min. Following ethanol precipitation, the RNA was analyzed by electrophoresis in polyacrylamide sequencing gels, and radialabeled RNA bands were visualized by autoradiography (using Agfa Curix RPI X-ray films and intensifying screens). Quantitation was performed by densitometric scanning using a Molecular Dynamics laser scanner and the ImageQuant™ software.
Samples identical to those used for Example 20 were analyzed by electrophoresis in a polyacrylamide sequencing gel. The results are shown in FIG. 23 where, Lanes 1-4: pA10KS/T3 RNA polymerase; lanes 5-8: pT10KS/T7 RNA polymerase; lanes 9-12: pA8G2KS/T3 RNA polymerase lanes 13-16: pT8C2KST7 RNA polymerase. The plasmid used in the samples of lanes 1-3 was cleaved with Xbal, that in lanes 6-8 with Pst1, that in lanes 9-11 with BamH1 and that in lanes 14-16 with HindIII. Lanes 1, 8, 9 & 16 are controls without PNA. […]

[9] = system: 5′d(GAGAGGAAAA); experiment: Melting temperature of complex with decamer; assay type: binding; conditions: pH 7
Description: (§3) The dimer prepared in Example 53 was incorporated into PNA H-TT(detT-idaT)CCTCTC-LysNH2 (SEQ ID NO:53) generally in accordance with Example 1. The melting temperatures, Tm, of complexes between this PNA and decamers 5′d(AAAAGGAGAG) (SEQ ID NO:54) and 5′d(GAGAGGAAAA) (SEQ ID NO:55) were 55° C. and 43.5° C., respectively, at pH 7. By comparison, the Tm of complexes between PNA H-TTTCCTCTC-LysNH2 (SEQ ID NO:56), prepared generally in accordance with Example 1, and these decamers was 58.5° C. and 40.5° C., respectively, at pH 7.

[10] = system: 5′d(AAAAGGAGAG); experiment: Melting temperature of complex with decamer; assay type: binding; conditions: pH 7
Description: as §3

[11] = 8 μM, average of the two methods
[12] = 8 μM, fit to modified two state model
[13] = 8 μM, linear plots of 1/TM versus log (concentration)
[14] = fit to modified two state model
[15] = fit to modified two state model, 100 mM NaCl, 10 mM Na-phosphate, 0.1 mM EDTA, pH 7.0
[16] = linear plots of 1/TM versus log (concentration)

For “DNA TGTACGTCACAACTA: DNA oligonucleotide 5′-TGTACGTCACAACTA-3′ as first strand of reference duplexes (DNA, backbone and methylation of C not given here) [reference compound]”, the “TM (average of the two methods)” value [1, 11] was 53.5 °C, the “TM (melting curve fit)” value [1, 12] was 53.6 °C and the “TM (1/TM versus log concentration)” value [1, 13] was 53.5 °C. For the same substance, the “ΔG°37 (average of the two methods)” value ([1]; average of the two methods) was -13.1 kcal/mol, the “ΔH° (average of the two methods)” value ([1]; average of the two methods) was -98.4 kcal/mol and the “ΔS° (average of the two methods)” value ([1]; average of the two methods) was −275.1 eu. The “ΔG°3 (melting curve fit)” value [1, 14] was −12.7, the “ΔS° (melting curve fit)” value [1, 14] was −253.9 eu and the “ΔH° (melting curve fit)” value [1, 15] was -91.5 kcal/mol. The “ΔG°37 (1/TM versus log concentration)” value [1, 16] was −13.4 kcal/mol, the “ΔH° (1/TM versus log concentration)” value [1, 16] was −105.3 kcal/mol and the “ΔS° (1/TM versus log concentration)” value [1, 16] was −296.2 eu. For the same substance, the “TM (average of the two methods)” value [2, 11] was 50.0 °C, the “TM (melting curve fit)” value [2, 12] was 49.8 °C and the “TM (1/TM versus log concentration)” value [2, 13] was 50.1 °C. For the same substance, the “ΔG°37 (average of the two methods)” value ([2]; average of the two methods) was -12.6 kcal/mol, the “ΔH° (average of the two methods)” value ([2]; average of the two methods) was -111.5 kcal/mol and the “ΔS° (average of the two methods)” value ([2]; average of the two methods) was −318.9 eu. The “ΔG°3 (melting curve fit)” value [2, 14] was −11.8, the “ΔS° (melting curve fit)” value [2, 14] was −264.9 eu and the “ΔH° (melting curve fit)” value [2, 15] was -94.0 kcal/mol. The “ΔG°37 (1/TM versus log concentration)” value [2, 16] was −13.3 kcal/mol, the “ΔH° (1/TM versus log concentration)” value [2, 16] was −128.9 kcal/mol and the “ΔS° (1/TM versus log concentration)” value [2, 16] was −372.8 eu. The Kd [3] was 2 nM, the “Melting temperature Tm, DNA:DNA” value [4] was 53.3 °C and the “Melting temperature Tm, DNA:RNA” value [5] was 50.6 °C.
“H-T2CT2CT4LysNH2 [PNA H-T2CT2CT4-LysNH2]” was tested, and the “strand displacement binding (KMnO4 and DMS probing)” value [6] was “Very little binding” and the “S1 nuclease digestion of pT9CT9C plasmid complexed with PNA” value [7] was “very weak digestion”.
For H-T4CT2CT2LysNH2 [PNA H-T4CT2CT2LysNH2], the transcription arrest efficiency [8] was “much less efficient”.
With “H-TTTCCTCTC-LysNH2 [PNA H-TTTCCTCTC-LysNH2]” the “melting temperature Tm” value [9] was 40.5 °C and the “melting temperature Tm” value [10] was 58.5 °C.
